Results reported in the Bradley open melting point set (2014).
“And” between values parts separate entries of the source, which are not always exact repeats. Identical values can stand only once.

SMILES | melting point
CC(C)(C)OC(=O)N[C@@H](Cc1ccccc1)C(=O)O [boc-phenylalanine] | 87 °C
Brc1ccccc1 [bromobenzene] | -31 °C
ClC(Cl)Br [bromodichloromethane] | -55 °C
CCBr [bromoethane] | -119 °C
BrC(Br)Br [bromoform] | 9 °C
O=C(O)C(=O)CBr [bromopyruvic acid] | 78 °C
CCCCOc1ccc(CC(=O)NO)cc1 [bufexamac] | 153 °C
O=C(NCc1ccccc1)OCCO [buramate] | 40 °C
CS(=O)(=O)OCCCCOS(C)(=O)=O [busulfan] | 116 °C
C1O[C@@H]1[C@H]1CO1 [butadiene diepoxide] | -19 °C
C=C(Br)CC1(C(C)CC)C(=O)NC(=O)NC1=O (stereo not drawn) [butallylonal] | 132 °C
CCCCOC(=O)c1ccc(N)cc1 [butyl 4-aminobenzoate] | 58 °C
CCCCOC(=O)CCC [butyl butyrate] | -92 °C (3×) and -91.5 °C (2×)
CCCCOC(=O)c1ccc(N)cc1 [butyl p-aminobenzoate] | 58 °C
CCCCC#N [butyl_cyanide] | -96 °C
CCCCOc1ccccc1 [butyl_phenyl_ether] | -19 °C
CCCCC1CCCCC1 [butylcyclohexane] | -75 °C
CCCC(N)=O [butyramide] | 116 °C
CCCC(=O)OC(=O)CCC [butyric anhydride] | -75 °C
CCCC(=O)c1ccccc1 [butyrophenone] | 12 °C
Cn1c(=O)c2c(ncn2C)n(C)c1=O [caffeine] [listing 1 of 2 here] | 238 °C (2×) and 235 °C (2×)
Cn1c(=O)c2c(ncn2C)n(C)c1=O [caffeine] [listing 2 of 2 here] | 238 °C
C=C1[C@@H]2CC[C@@H](C2)C1(C)C [camphene] | 35 °C

SMILES | melting point
CC12CCC(CC1=O)C2(C)C (stereo not drawn) [camphor] [listing 1 of 2 here] | 174 °C
CC12CCC(CC1=O)C2(C)C (stereo not drawn) [camphor] [listing 2 of 2 here] | 177 °C
CC1(C)[C@@H]2CC[C@@]1(C)C(=O)C2 [camphor] | 180 °C
CC12CCC(C(=O)C1=O)C2(C)C (stereo not drawn) [camphorquinone] | 200 °C
NC(=O)N1c2ccccc2C=Cc2ccccc21 [carbamazepine] | 192 °C
c1ccc2c(c1)[nH]c1ccccc12 [carbazole] | 247 °C and 243 °C
NC(=O)CN1Cc2ccccc2OC1=O [caroxazone] | 203 °C
Oc1ccccc1O [catechol] [listing 1 of 2 here] | 105 °C
Oc1ccccc1O [catechol] [listing 2 of 2 here] | 106 °C
CN(C)CCC(O)(c1ccccc1)c1ccccc1Cl (stereo not drawn) [chlophedianol] | 120 °C
O=C(O)CCl [chloroacetic acid] | 62 °C
O=C(Cl)CCl [chloroacetyl chloride] | -22 °C
ClC1CCCC1 [chlorocyclopentane] | -94 °C
CCCNC(=O)NS(=O)(=O)c1ccc(Cl)cc1 [chlorpropamide] | 128 °C
CC(C)CCCC(C)C1CCC2C3CC=C4CC(O)CCC4(C)C3CCC12C (stereo not drawn) [cholest-5-en-3-ol] | 148 °C
CCCCCCCCC(=O)O[C@H]1CC[C@@]2(C)C(=CC[C@H]3[C@@H]4CC[C@H]([C@H](C)CCCC(C)C)[C@@]4(C)CC[C@@H]32)C1 [cholesteryl nonanoate] | 77 °C
CCCCCCCCCCCCCCCCCC(=O)O[C@H]1CC[C@@]2(C)C(=CC[C@H]3[C@@H]4CC[C@H]([C@H](C)CCCC(C)C)[C@@]4(C)CC[C@@H]32)C1 [cholesteryl stearate] | 80 °C
Cl/C=C\Cl [cis-1,2-dichloroethylene] | -80 °C
COc1ccc2c(C(=O)c3ccc(Cl)cc3)c(C)n(CC(=O)O)c2c1 [clometacin] | 242 °C
C/C=C/C=O [crotonaldehyde] | -76 °C
N#CCC(N)=O [cyanoacetamide] | 120 °C
Clc1nc(Cl)nc(Cl)n1 [cyanuric chloride] | 147 °C
O=C=NC1CCCCC1 [cyclohexyl isocyanate] | -80 °C

Now from value to compound:

melting point | SMILES
152 °C | O=Cc1coc2ccccc2c1=O [chromone-3-carboxaldehyde]
141 °C | CNC(=NC#N)NCCSCc1nc[nH]c1C [cimetidine]
34 °C | OC/C=C/c1ccccc1 [cinnamyl alcohol]
-100 °C | C/C=C\CCCCC [cis-2-octene]
-151 °C | C/C=C\CC [cis-2-pentene]
-138 °C | CC/C=C\CC [cis-3-hexene]
-119 °C | CCC/C=C\CCC [cis-4-octene]
-16 °C | C1=C\CCCCCC/1 [cis-cyclooctene]
286 °C | C/C(=C/C(=O)NN)C(=O)NN [citraconic hydrazide]
153 °C | O=C(O)CC(O)(CC(=O)O)C(=O)O [citric acid anhydrous]
154 °C | O=C(O)CC(O)(CC(=O)O)C(=O)O [citric acid, anhydrous]
130 °C | Clc1cccc(Cl)c1N=C1NCCN1 [clonidine]
130 °C | Clc2cccc(Cl)c2N=C1/NCCN1 [clonidine]
82 °C | CC(C)(C)NCC(O)COc1cc(Cl)ccc1Cl (stereo not drawn) [cloranolol]
438 °C and 440 °C | c1cc2ccc3ccc4ccc5ccc6ccc1c1c2c3c4c5c61 [coronene]
222 °C and 226 °C (2×) | O=C(CO)[C@@]3(O)CC[C@H]2[C@@H]4CC\C1=C\C(=O)CC[C@]1(C)[C@H]4C(=O)C[C@@]23C [cortisone]
222 °C | C[C@]12CCC(=O)C=C1CC[C@@H]1[C@@H]2C(=O)C[C@@]2(C)[C@H]1CC[C@]2(O)C(=O)CO [cortisone]
-96 °C | CC(C)c1ccccc1 [cumene]
-90.7 °C | C1CCC1 [cyclobutane]

melting point | SMILES
61 °C | C1CCCCCCCCCCC1 [cyclododecane]
78 °C | OC1CCCCCCCCCCC1 [cyclododecanol]
0 °C | C1=CCCCCCCCCCC1 [cyclododecene_(trans)]
135 °C | O=C(Nc1ccccc1)OC1C=CC=CCC1OC(=O)Nc1ccccc1 (stereo not drawn) [cyclohepta-3,5-diene-1,2-diyl bis(phenylcarbamate)]
174 °C | O=C(Nc1ccccc1)OC1CCCCCC1OC(=O)Nc1ccccc1 (stereo not drawn) [cycloheptane-1,2-diyl bis(phenylcarbamate)]
34.5 °C | O=CC1CCCCC1 [cyclohexanecarbaldehyde]
35 °C | O=CC1CCCCC1 [cyclohexanecarboxaldehyde]
25.9 °C | OC1CCCCC1 [cyclohexanol] [listing 1 of 2 here]
24 °C | OC1CCCCC1 [cyclohexanol] [listing 2 of 2 here]
89 °C | ON=C1CCCCC1 [cyclohexanone oxime]
-104 °C | C1=CCCCC1 [cyclohexene]
-18 °C | NC1CCCCC1 [cyclohexylamine] [listing 1 of 2 here]
-17 °C and -17.7 °C | NC1CCCCC1 [cyclohexylamine] [listing 2 of 2 here]
15 °C | C1CCCCCCC1 [cyclooctane]
15 °C | OC1CCCCCCC1 [cyclooctanol]
41 °C | O=C1CCCCCCC1 [cyclooctanone]
62 °C | C1CCCCCCCCCCCCCC1 [cyclopentadecane]
-7 °C | O=C(O)C1CCCC1 [cyclopentanecarboxylic acid]
